Consider 19 compounds from patent US7709516B2, “Helix 12 directed non-steroidal antiandrogens” (Endorecherche, Inc., priority 2005, dated 2010).

Like-named read-outs stand apart in the source and are kept apart here.

The test system of test [1] is rat prostate, seminal vesicle, levator ani muscle. Nature of the test: Systemic antiandrogenic activity in orchidectomized immature male rats with DHT implant. It is filed as in vivo. The settings on record: Rattus norvegicus, 168 h, rat +DHT, 0.5 mg/animal daily 7 days.
The target of the next test is T1, Human Androgen Receptor (Homo sapiens, UniProt P10275).
T1 sequence (P10275 1-920): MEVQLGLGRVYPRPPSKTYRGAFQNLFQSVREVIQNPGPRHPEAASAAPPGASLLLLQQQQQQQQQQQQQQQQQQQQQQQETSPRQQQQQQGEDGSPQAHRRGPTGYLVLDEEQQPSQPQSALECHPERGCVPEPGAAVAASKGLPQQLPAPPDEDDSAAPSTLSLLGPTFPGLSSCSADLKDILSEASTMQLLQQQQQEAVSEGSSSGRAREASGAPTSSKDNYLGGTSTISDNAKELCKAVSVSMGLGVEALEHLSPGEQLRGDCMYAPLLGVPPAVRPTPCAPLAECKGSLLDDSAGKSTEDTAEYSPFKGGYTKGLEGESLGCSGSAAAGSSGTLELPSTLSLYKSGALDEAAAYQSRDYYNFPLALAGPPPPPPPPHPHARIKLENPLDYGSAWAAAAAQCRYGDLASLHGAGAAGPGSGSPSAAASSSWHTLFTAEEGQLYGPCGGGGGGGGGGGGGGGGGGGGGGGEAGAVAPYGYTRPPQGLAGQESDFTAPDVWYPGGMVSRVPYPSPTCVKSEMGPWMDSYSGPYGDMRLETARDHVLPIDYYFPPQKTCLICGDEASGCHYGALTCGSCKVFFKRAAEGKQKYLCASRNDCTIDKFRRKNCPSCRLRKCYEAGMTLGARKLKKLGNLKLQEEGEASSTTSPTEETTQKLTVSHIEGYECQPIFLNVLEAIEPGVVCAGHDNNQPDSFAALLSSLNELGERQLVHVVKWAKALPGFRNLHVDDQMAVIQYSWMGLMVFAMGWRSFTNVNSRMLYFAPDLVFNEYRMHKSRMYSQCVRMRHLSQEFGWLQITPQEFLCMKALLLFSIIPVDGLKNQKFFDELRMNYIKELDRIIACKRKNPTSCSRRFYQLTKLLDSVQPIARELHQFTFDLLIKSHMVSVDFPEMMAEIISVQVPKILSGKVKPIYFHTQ
Kind of test: Androgen receptor binding assay ([3H]R1881, HAP) in cytosol of HEK-293 cells transfected with hAR. The settings on record: Table 1; relative to R1881 = 100, transfected cells.

Test [2] has as its system Shionogi mouse mammary carcinoma cells. Kind of test: Androgenic/antiandrogenic activity: inhibition of DHT-stimulated Shionogi cell number. The class given is cell-based. The settings on record: Mus musculus, read-out: Shionogi Antiandrogenic Activity IC50, Table 1; DHT-stimulated Shionogi cell number.
The mark [3] stands for this setting: read-out: Lev Ani % inhibition, Table 1, s.c. or p.o. (route not marked), levator ani.
Where [4] appears, read: read-out: Prostate % inhibition, Table 1, s.c. or p.o. (route not marked in cell).
Setting [5] is: read-out: SV % inhibition, Table 1, s.c. or p.o. (route not marked), seminal vesicle.

As for `CC(C)NCc1cccc(OCCCN2C(=S)N(c3ccc(C#N)c(C(F)(F)F)c3)C(=O)C2(C)C)c1` [EM-7096], the inhibition in vivo at 0.5 mg in test [1] (setting [3]) came out at 50%; in test [1] (setting [4]), 42%; in test [1] (setting [5]), 64%. For the same compound, on Human Androgen Receptor, the “Human Androgen Receptor Binding (%) RBA R1881 = 100” value is listed as 3.0%. In addition, the IC50 (usually the concentration that gives 50% inhibition) in test [2] worked out at 27.5 nM.

For `CC(C)NCc1ccc(OCCCN2C(=S)N(c3ccc(C#N)c(C(F)(F)F)c3)C(=O)C2(C)C)cc1` [EM-7105], the inhibition in vivo at 0.5 mg in test [1] (setting [3]) is 45%; in test [1] (setting [4]) it was 60%; in test [1] (setting [5]) it was 81%. For the same compound, the “Human Androgen Receptor Binding (%) RBA R1881 = 100” value on Human Androgen Receptor turned out to be 11.7%. In addition, the IC50 in test [2] was found to be 11.8 nM.

Turning to `CCC(=O)c1cccc(OCCCN2C(=S)N(c3ccc(C#N)c(C(F)(F)F)c3)C(=O)C2(C)C)c1` [EM-7113, 4-{4,4-dimethyl-5-oxo-3-[3-(3-propionyl-phenoxy)-propyl]-2-thioxo-imidazolidin-1-yl}-2-trifluoromethyl-benzonitrile], the inhibition in vivo at 0.5 mg in test [1] (setting [3]) was found to be 58%; in test [1] (setting [4]) it was 42%; in test [1] (setting [5]), 70%. Moreover, the “Human Androgen Receptor Binding (%) RBA R1881 = 100” value at Human Androgen Receptor was 30.5%. The IC50 in test [2] worked out at 69 nM.

Consider `CCC(CC)NCc1ccc(OCCCN2C(=S)N(c3ccc(C#N)c(C(F)(F)F)c3)C(=O)C2(C)C)cc1` [EM-7144], for which the values for the inhibition in vivo at 0.5 mg in test [1] (setting [3]), in test [1] (setting [4]) and in test [1] (setting [5]) were 41%, 45% and 61%, respectively. Moreover, the “Human Androgen Receptor Binding (%) RBA R1881 = 100” value at Human Androgen Receptor was found to be 14.0%. The IC50 in test [2] turned out to be 22.5 nM.

As to `CCNCc1ccc(OCCCN2C(=S)N(c3ccc(C#N)c(C(F)(F)F)c3)C(=O)C2(C)C)cc1` [EM-7148], the results for the inhibition in vivo at 0.5 mg in test [1] (setting [3]), in test [1] (setting [4]) and in test [1] (setting [5]) were 75%, 58% and 85%, respectively. Also, the “Human Androgen Receptor Binding (%) RBA R1881 = 100” value on Human Androgen Receptor amounted to 12.0%. Moreover, the IC50 in test [2] was found to be 6.1 nM.

Consider `CCC(=O)c1ccc(OCCCN2C(=S)N(c3ccc(C#N)c(C(F)(F)F)c3)C(=O)C2(C)C)cc1` [EM-7154], for which the inhibition in vivo at 0.5 mg in test [1] (setting [3]) worked out at 6%; in test [1] (setting [4]) it was 8%; in test [1] (setting [5]), 31%. Moreover, the “Human Androgen Receptor Binding (%) RBA R1881 = 100” value at Human Androgen Receptor worked out at 64.7%. Moreover, the IC50 in test [2] was determined as 20 nM.

Consider `CC(=O)c1ccc(OCCCN2C(=S)N(c3ccc(C#N)c(C(F)(F)F)c3)C(=O)C2(C)C)cc1` [EM-7168], for which the inhibition in vivo at 0.5 mg in test [1] (setting [3]) stood at 0%; in test [1] (setting [4]), 14%; in test [1] (setting [5]), 54%. Moreover, the “Human Androgen Receptor Binding (%) RBA R1881 = 100” value on Human Androgen Receptor is on record as 49.3%. In addition, in test [2], the IC50 amounted to 13 nM.

On to `CC(NC1CC1)c1ccc(OCCCN2C(=S)N(c3ccc(C#N)c(C(F)(F)F)c3)C(=O)C2(C)C)cc1` (centres unmarked) [EM-7169], for which the results for the inhibition in vivo at 0.5 mg in test [1] (setting [3]), in test [1] (setting [4]) and in test [1] (setting [5]) were 31%, 45% and 72%, respectively. Further, the “Human Androgen Receptor Binding (%) RBA R1881 = 100” value at Human Androgen Receptor stood at 21.7%. Further, in test [2], the IC50 turned out to be 11 nM.

`CN(C)Cc1ccc(OCCCN2C(=S)N(c3ccc(C#N)c(C(F)(F)F)c3)C(=O)C2(C)C)cc1` [EM-7192]: the inhibition in vivo at 0.5 mg in test [1] (setting [3]) was 0%; in test [1] (setting [4]), 53%; in test [1] (setting [5]), 75%. Further, the “Human Androgen Receptor Binding (%) RBA R1881 = 100” value on Human Androgen Receptor is listed as 15.6%. In test [2], the IC50 was 11.5 nM.

Regarding `CC(C)NC(=O)c1ccc(OCCCN2C(=S)N(c3ccc(C#N)c(C(F)(F)F)c3)C(=O)C2(C)C)cc1` [EM-7202], the inhibition in vivo at 0.5 mg in test [1] (setting [3]) came out at 0%; in test [1] (setting [4]) it was 26%; in test [1] (setting [5]), 63%. Moreover, at Human Androgen Receptor, the “Human Androgen Receptor Binding (%) RBA R1881 = 100” value is given as 37.0%. The IC50 in test [2] is 36.5 nM.

Regarding `CCC(NC(C)C)c1ccc(OCCCN2C(=S)N(c3ccc(C#N)c(C(F)(F)F)c3)C(=O)C2(C)C)cc1` (centres unmarked) [EM-7203], the figures for the inhibition in vivo at 0.5 mg in test [1] (setting [3]), in test [1] (setting [4]) and in test [1] (setting [5]) were 4%, 37% and 66%, respectively. Further, the “Human Androgen Receptor Binding (%) RBA R1881 = 100” value at Human Androgen Receptor is reported as 48.4%. In addition, in test [2], the half-inhibitory concentration (IC50) is 8.9 nM.

For the compound `CCC(C)NCc1ccc(OCCCN2C(=S)N(c3ccc(C#N)c(C(F)(F)F)c3)C(=O)C2(C)C)cc1` (centres unmarked) [EM-7225], the results for the inhibition in vivo at 0.5 mg in test [1] (setting [3]), in test [1] (setting [4]) and in test [1] (setting [5]) were 14%, 52% and 71%, respectively. The “Human Androgen Receptor Binding (%) RBA R1881 = 100” value on Human Androgen Receptor was 15.3%. The IC50 in test [2] was 12.5 nM.

For `CCCNCc1ccc(OCCCN2C(=S)N(c3ccc(C#N)c(C(F)(F)F)c3)C(=O)C2(C)C)cc1` [EM-7227], the inhibition in vivo at 0.5 mg is 1% in test [1] (setting [3]), 35% in test [1] (setting [4]) and 77% in test [1] (setting [5]). Moreover, the “Human Androgen Receptor Binding (%) RBA R1881 = 100” value on Human Androgen Receptor came to 18.0%. Further, the IC50 in test [2] came to 10.8 nM.

As to `CC1(C)C(=O)N(c2ccc(C#N)c(C(F)(F)F)c2)C(=S)N1CCCOc1ccc(CN2CCCC2)cc1` [EM-7232, 4-{4,4-Dimethyl-5-oxo-3-[3-(4-pyrrolidin-1-ylmethyl-phenoxy)-]-2-thioxo-imidazolidin-1-yl}-2-trifluoro-benzonitrile], the inhibition in vivo at 0.5 mg came to 70% in test [1] (setting [3]), 45% in test [1] (setting [4]) and 84% in test [1] (setting [5]). Besides, the “Human Androgen Receptor Binding (%) RBA R1881 = 100” value at Human Androgen Receptor was 19.0%. Also, in test [2], the IC50 came to 7.6 nM.

Consider `CC(C)N(C)Cc1ccc(OCCCN2C(=S)N(c3ccc(C#N)c(C(F)(F)F)c3)C(=O)C2(C)C)cc1` [EM-7233], for which the figures for the inhibition in vivo at 0.5 mg in test [1] (setting [3]), in test [1] (setting [4]) and in test [1] (setting [5]) were 70%, 54% and 82%, respectively. In addition, the “Human Androgen Receptor Binding (%) RBA R1881 = 100” value at Human Androgen Receptor is reported as 15.0%. For the same compound, in test [2], the IC50 turned out to be 12 nM.

`CC(C)NC(C)c1ccc(OCCCN2C(=S)N(c3ccc(C#N)c(C(F)(F)F)c3)C(=O)C2(C)C)cc1` (centres unmarked) [EM-7234, 4-(3-{3-[4-(1-Isopropylamino-ethyl)-phenoxy]-propyl}-4,4-dimethyl-5-oxo-2-thioxo-imidazolidin-1-yl)-2-tifluoromethyl-benzonitile]: the inhibition in vivo at 0.5 mg in test [1] (setting [3]) came to 75%; in test [1] (setting [4]), 50%; in test [1] (setting [5]), 82%. The “Human Androgen Receptor Binding (%) RBA R1881 = 100” value on Human Androgen Receptor was found to be 30.4%. The IC50 in test [2] was 6.2 nM.

With `CCN(C)Cc1ccc(OCCCN2C(=S)N(c3ccc(C#N)c(C(F)(F)F)c3)C(=O)C2(C)C)cc1` [EM-7242], the figures for the inhibition in vivo at 0.5 mg in test [1] (setting [3]), in test [1] (setting [4]) and in test [1] (setting [5]) were 55%, 41% and 72%, respectively. The “Human Androgen Receptor Binding (%) RBA R1881 = 100” value at Human Androgen Receptor is recorded as 18.0%. Moreover, the IC50 in test [2] stood at 9.8 nM.

In the case of `CC(c1ccc(OCCCN2C(=S)N(c3ccc(C#N)c(C(F)(F)F)c3)C(=O)C2(C)C)cc1)N(C)C` (centres unmarked) [EM-7243], the inhibition in vivo at 0.5 mg was 73% in test [1] (setting [3]), 34% in test [1] (setting [4]) and 72% in test [1] (setting [5]). The “Human Androgen Receptor Binding (%) RBA R1881 = 100” value on Human Androgen Receptor is 14.0%. Moreover, the IC50 in test [2] worked out at 14 nM.

As for `CC1(C)C(=O)N(c2ccc(C#N)c(C(F)(F)F)c2)C(=S)N1CCCOc1ccc(CN2CCOCC2)cc1` [EM-7248], the inhibition in vivo at 0.5 mg in test [1] (setting [3]) is 44%; in test [1] (setting [4]), 37%; in test [1] (setting [5]) it was 62%. Further, the “Human Androgen Receptor Binding (%) RBA R1881 = 100” value on Human Androgen Receptor is on record as 32.4%. The IC50 in test [2] is 19 nM.
